According to the supplement of paper PMC10307832:

Columns and labels:
Test in all cases: relative viability (nuclei count vs DMSO), 5 days (fraction); higher = more cells survive
[1] = compound: Cc1ccc(C(=O)Nc2cccc(C(F)(F)F)c2)cc1Nc1cncc(C(N)=O)c1 [ALW-II-49-7] + Nc1nc2[nH]cc(CCc3ccc(C(=O)N[C@@H](CCC(=O)O)C(=O)O)cc3)c2c(=O)[nH]1 [Pemetrexed] (partner 0.2 µM)
How it was run: (§1)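 Cells from lung cancer lines were seeded into 1536-well plates and, one day later, dosed by pin tool. Treatments were either a single drug or a fixed dose of an anchor drug with five library-drug doses (not always all listed) in √10 steps. After 5 days, nuclei were stained in a one-step fixation (final 0.05% Triton X-100, 1% formaldehyde, 1 ug/ml Hoechst) and counted on 4× images, and relative viability is the treated-to-vehicle nuclei ratio, as the median of duplicate plates.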

[2] = compound: C1CC1C(=O)NC2=NNC3=C2C=CC(=C3)C4=CC(=CC=C4)C(=O)NC5CC5 [XMD13-2] + CC(C)C[C@H](NC(=O)[C@H](Cc1ccccc1)NC(=O)c1cnccn1)B(O)O [Bortezomib] (partner 0.002 µM)
How it was run: as §1

[3] = compound: Cc1nc(Nc2ncc(C(=O)Nc3c(C)cccc3Cl)s2)cc(N2CCN(CCO)CC2)n1 [Dasatinib] + CC(C)C[C@H](NC(=O)[C@H](Cc1ccccc1)NC(=O)c1cnccn1)B(O)O [Bortezomib] (partner 0.002 µM)
How it was run: as §1

[4] = compound: Cc1ccc(C(=O)Nc2cccc(C(F)(F)F)c2)cc1Nc1cncc(C(N)=O)c1 [ALW-II-49-7] + CS(=O)(=O)CCNCc1ccc(-c2ccc3ncnc(Nc4ccc(OCc5cccc(F)c5)c(Cl)c4)c3c2)o1 [Lapatinib] (partner 2 µM)
How it was run: as §1

Row | Cell Line | relative viability ([1]; first compound 0.08 µM) | relative viability ([1]; first compound 0.253 µM) | relative viability ([1]; first compound 0.8 µM) | relative viability ([1]; first compound 2.53 µM) | relative viability ([1]; first compound 8 µM) | relative viability ([2]; first compound 0.05 µM) | relative viability ([2]; first compound 0.1581 µM) | relative viability ([2]; first compound 0.5 µM) | relative viability ([2]; first compound 1.581 µM) | relative viability ([2]; first compound 5 µM) | relative viability ([3]; first compound 0.005 µM) | relative viability ([3]; first compound 0.01581 µM) | relative viability ([3]; first compound 0.05 µM) | relative viability ([3]; first compound 0.1581 µM) | relative viability ([3]; first compound 0.5 µM) | relative viability ([4]; first compound 0.08 µM) | relative viability ([4]; first compound 0.253 µM) | relative viability ([4]; first compound 0.8 µM) | relative viability ([4]; first compound 2.53 µM) | relative viability ([4]; first compound 8 µM)
1 | HCC-44 | 0.683 | 0.662 | 0.617 | 0.664 | 0.673 | 0.899 | 0.92 | 0.897 | 0.804 | 0.966 | 0.857 | 0.857 | 0.993 | 0.894 | 0.45 | 0.967 | 1.04 | 0.995 | 0.973 | 0.923
2 | HCC-78 | 0.888 | 0.846 | 0.91 | 0.884 | 0.891 | 0.464 | 0.551 | 0.349 | 0.553 | 0.516 | 0.419 | 0.381 | 0.463 | 0.385 | 0.225 | 0.779 | 0.957 | 0.993 | 0.878 | 0.623
3 | HCC-366 | 0.195 | 0.188 | 0.155 | 0.195 | 0.131 | 1.24 | 0.988 | 0.969 | 1.04 | 1.04 | 0.989 | 0.738 | 0.637 | 0.632 | 0.407 | 1.21 | 1.32 | 1 | 1.09 | 1.13
4 | HCC-827 | 0.275 | 0.259 | 0.173 | 0.176 | 0.25 | 1.05 | 1.02 | 1.04 | 0.957 | 1.04 | 1.08 | 1.03 | 1.07 | 0.981 | 0.48 | 0.17 | 0.237 | 0.189 | 0.178 | 0.175
5 | HOP-62 | 0.313 | 0.35 | 0.322 | 0.307 | 0.243 | 1.03 | 0.726 | 0.842 | 1.23 | 0.756 | 0.875 | 0.674 | 0.643 | 0.864 | 0.39 | 1.17 | 1.24 | 1.1 | 0.806 | 0.639
6 | IA-LM |  |  |  |  |  | 0.907 | 0.79 | 0.825 | 0.829 | 0.398 | 1.14 | 0.882 | 1.03 | 0.766 | 0.615 | 0.83 | 0.906 | 0.645 | 0.152 | 0.169
7 | LC-2-ad | 0.249 | 0.258 | 0.273 | 0.229 | 0.267 | 1.25 | 1.11 | 1.1 | 1.01 | 1.08 | 0.582 | 0.985 | 1.01 | 0.871 | 0.36 | 0.812 | 0.96 | 0.932 | 0.947 | 0.753
8 | LCLC-97TM1 | 0.147 | 0.161 | 0.176 | 0.16 | 0.148 | 1.02 | 0.686 | 0.881 | 0.236 | 0.469 | 0.525 | 0.561 | 0.735 | 0.665 | 0.461 | 1.03 | 1.06 | 1.06 | 0.842 | 1.01
